{"source": "patent US6207648A", "about": "“Methods of using cytochrome P450 reductase for the enhancement of P450-based anti-cancer gene therapy” (priority 1998, dated 2001)", "key": {"[1]": {"system": "9L gliosarcoma cells (parental, CYP2B1+, CYP2B1+ RED+++)", "experiment": "In vitro colony formation cytotoxicity assay (Example 1)", "assay_type": "cell-based, rat", "text": "FIGS. 2A and 2C depict the results of a colony formation cytotoxicity assay.\nFIG. 3A depicts results from a colony formation cytotoxicity assay. […] The survival fraction is expressed as the number of colonies in each treatment group compared to the untreated control.\nCorresponding controls received no drug treatment."}, "parental 9L cells": {"system": "parental 9L cells", "experiment": "Limited dilution assay of conditioned media, bystander killing of parental 9L cells", "assay_type": "cell-based, rat", "settings": "PR11, PR7 vs P3, P17; 2 mM CPA 48 h", "method": "FIG. 5 is a graph depicting the effects of culture media from P450 and RED-transduced tumor cells incubated with CPA, on the survival of wild-type tumor cells. […] Parental 9L cells seeded in 30 mm plates (10^4 cells/well) in duplicate were cultured with 5-50% of condition media collected from each of the indicated cell lines (1.5×10^6) incubated with 2 mM CPA for 48 hours as described below in the \"Materials Methods\" section of Example 1. Five days after treatment, the number of viable parental 9L cells was determined using a hemacytometer based on trypan blue exclusion (mean for duplicate values).\nLimited dilution assay to evaluate bystander killing effect: 9L cells were seeded in 6-well plates at 1.5×10^6 cells/well for 12 hours, and treated with 2 mM CPA for 48 hours. The conditioned media from each well was collected, diluted 5-50% into fresh media as indicated for each experiment, and added into wells of a second set of 6-well plates pre-seeded with parental 9L cells (10^4 cells/well). Cultures were maintained for 5-7 days and colonies were scored as described for the clonogenic assay."}, "CYP2B1": {"system": "CYP2B1", "experiment": "Fluorometric assay of 4-hydroxy-CPA in culture medium of 9L tumor cells (Example 1)", "assay_type": "in vitro ADME, rat", "settings": "2 mM CPA, 24 h", "method": "FIG. 7 is a bar graph showing that higher 4-hydroxy-CPA levels are produced by P450 and RED-containing tumor cells compared to tumor cells containing P450 alone. The parental CYP2B1^+ cell lines P3 and P17, and their corresponding RED overexpressing derivatives PR11 and PR7 were plated confluent (1.5×10^6 cells per 30 mm culture dish) so that the cell number remained relatively constant during the course of the experiment. Cells were incubated for 24 hours with 2 mM CPA in the presence of 5 mM semicarbazide. Medium was collected and then assayed for 4-hydroxy-CPA using a fluorometric assay, as described below in the \"Materials and Methods\" section of Example 1. Limit of detection in this assay was approximately 1 μM 4-hydroxy-CPA. The higher CPA 4-hydroxylase activity of line P 17 compared to line P3 is consistent both with the higher cytotoxic potential of CPA-conditioned media from P17 cells (FIG. 5), and with the greater cytotoxicity of CPA toward the P 17 cells in vitro (FIGS. 2, 3) and in vivo (FIG. 9, below)."}}}
{"smiles": "O=P1(N(CCCl)CCCl)NCCCO1", "note": "(centres unmarked) [CPA, cyclophosphamide]", "values": [{"measurement": "sensitization of 9L cells to CPA by RED overexpression alone", "setting": "[1]; line 9L-R (RED without CYP2B1)", "value": "did not sensitize 9L tumor cells"}, {"measurement": "cytotoxic response of CYP2B1+ cells on RED overexpression", "setting": "[1]; lines PR11, PR7 vs P3, P17, colony formation assay", "value": "significantly enhanced the cytotoxic response"}, {"measurement": "cytotoxicity of conditioned media of CYP2B1+ RED+++ vs CYP2B1+ cells incubated with CPA", "setting": "parental 9L cells", "value": "substantially more cytotoxic"}, {"measurement": "4-hydroxylated metabolites in 9L parental cells", "setting": "CYP2B1", "value": "corresponds to the limit of detection"}, {"measurement": "levels of 4-hydroxy-CPA formed by CYP2B1+ RED+++ vs parental CYP2B1+ cell lines", "setting": "CYP2B1; 5 mM semicarbazide", "value": "up to 3 fold"}]}
